# Results as given in patent US20050176655A1, “Novel macrolide derivatives havaing effect of potentiating antifungal activity” (priority 2002, published 2005).
# Legend:
# Test in all cases: Paper disk method, enhancing action for activities of azole antifungal agents
# Format in all cases: cell-based
# [1] = test system: fluconazole resistant Candida albicans ATCC 64550; conditions: 24 hours; for Inhibition activity (inhibition ring mm) C. albicans ATCC 64550 GYM / Transparency of the inhibition ring C. albicans ATCC 64550 GYM: miconazole 0.15 μg/ml; for Inhibition activity (inhibition ring mm) C. albicans ATCC 64550 GYF / Transparency of the inhibition ring C. albicans ATCC 64550 GYF: fluconazole 30 μg/ml
# Procedure: Test organisms used were Candida albicans ATCC 64548, fluconazole resistant Candida albicans ATCC 64550 and Aspergillus niger ATCC 6275. Candida spp. were cultured in Waksman broth (glucose 2.0%, peptone 0.5%, dry yeast 0.3%, meat extract 0.5%, NaCl 0.5% and CaCO3 0.3%, pH 7.0) at 27° C. for 40 hours, then 0.1% thereof was inoculated on GY agar medium (glucose 1.0%, yeast extract 0.5% and agar 0.8%, pH 6.0). Spore suspension 0.2% of Aspergillus niger ATCC 6275 was inoculated on GY agar medium.
# Azole antifungal agents used were miconazole (Sigma Inc., the U.S.) and fluconazole (ICN Pharmaceuticals, Inc., the U.S.), and were added at concentrations without affecting growth on each test organisms follows.
# Candida albicans ATCC 64550: miconazole 0.15 μg/ml or fluconazole 30 μg/ml.
# In the above medium, a medium added with miconazole to GY medium (control) is designated as GYM, and a medium added with fluconazole is designated as GYF. Activities were assessed by means of paper disk method (thickness: 8 mm, ADVANTEC MFS INC., Japan). Diameter of inhibition ring is expressed with mm unit after culturing Candida spp. for 24 hours and Aspergillus niger ATCC 6275 for 48 hours. Transparency of the inhibition ring is assessed with 5 degrees of A, B, C, D and E (transparence<A<B<C<D<E<opaque).
# [2] = test system: Aspergillus niger ATCC 6275; conditions: 48 hours; for Inhibition activity (inhibition ring mm) A. niger ATCC 6275 GY / Transparency of the inhibition ring A. niger ATCC 6275 GY: GY medium (control, no azole); for Inhibition activity (inhibition ring mm) A. niger ATCC 6275 GYF / Transparency of the inhibition ring A. niger ATCC 6275 GYF: fluconazole 10 μg/ml; for Inhibition activity (inhibition ring mm) A. niger ATCC 6275 GYM / Transparency of the inhibition ring A. niger ATCC 6275 GYM: miconazole 0.1 μg/ml
# Procedure, shortened: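 Paper-disk assay on A. niger ATCC 6275 spores (0.2%) seeded on GY agar pH 6.0. After 48 h, inhibition-zone diameter recorded in mm and transparency graded A (transparent) to E (opaque).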
# [3] = test system: Candida albicans ATCC 64548; conditions: 24 hours; for Inhibition activity (inhibition ring mm) C. albicans ATCC 64548 GYM / Transparency of the inhibition ring C. albicans ATCC 64548 GYM: miconazole 0.03 μg/ml; for Inhibition activity (inhibition ring mm) C. albicans ATCC 64548 GYF / Transparency of the inhibition ring C. albicans ATCC 64548 GYF: fluconazole 0.5 μg/ml
# Procedure, shortened: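 GY agar (pH 6.0) seeded with C. albicans ATCC 64548 precultured in Waksman broth at 27° C for 40 hours, supplemented with sub-growth-inhibitory miconazole 0.03 μg/ml or fluconazole 0.5 μg/ml. Paper disk method; inhibition-zone diameter (mm) read after 24 hours, transparency graded A–E.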
Structure (SMILES),Inhibition activity (inhibition ring mm) C. albicans ATCC 64550 GYM ([1]; 100 μg/8 mm disk),Transparency of the inhibition ring C. albicans ATCC 64550 GYM ([1]; 100 μg/8 mm disk),Inhibition activity (inhibition ring mm) A. niger ATCC 6275 GY ([2]; 50 μg/8 mm disk),Transparency of the inhibition ring A. niger ATCC 6275 GY ([2]; 50 μg/8 mm disk),Inhibition activity (inhibition ring mm) A. niger ATCC 6275 GYF ([2]; 50 μg/8 mm disk),Transparency of the inhibition ring A. niger ATCC 6275 GYF ([2]; 50 μg/8 mm disk),Inhibition activity (inhibition ring mm) A. niger ATCC 6275 GYM ([2]; 50 μg/8 mm disk),Transparency of the inhibition ring A. niger ATCC 6275 GYM ([2]; 50 μg/8 mm disk),Inhibition activity (inhibition ring mm) C. albicans ATCC 64548 GYM ([3]; 100 μg/8 mm disk),Transparency of the inhibition ring C. albicans ATCC 64548 GYM ([3]; 100 μg/8 mm disk),Inhibition activity (inhibition ring mm) C. albicans ATCC 64550 GYF ([1]; 50 μg/8 mm disk),Transparency of the inhibition ring C. albicans ATCC 64550 GYF ([1]; 50 μg/8 mm disk),Inhibition activity (inhibition ring mm) C. albicans ATCC 64550 GYM ([1]; 50 μg/8 mm disk),Transparency of the inhibition ring C. albicans ATCC 64550 GYM ([1]; 50 μg/8 mm disk),Inhibition activity (inhibition ring mm) A. niger ATCC 6275 GYF ([2]; 10 μg/8 mm disk),Transparency of the inhibition ring A. niger ATCC 6275 GYF ([2]; 10 μg/8 mm disk),Inhibition activity (inhibition ring mm) C. albicans ATCC 64548 GYM ([3]; 10 μg/8 mm disk),Transparency of the inhibition ring C. albicans ATCC 64548 GYM ([3]; 10 μg/8 mm disk),Inhibition activity (inhibition ring mm) C. albicans ATCC 64548 GYM ([3]; 50 μg/8 mm disk),Transparency of the inhibition ring C. albicans ATCC 64548 GYM ([3]; 50 μg/8 mm disk),further results
"CCC(OC(C)=O)C(C)(O)C1OC(=O)C(C)C(OC2CC(C)(OC)C(OC(C)=O)C(C)O2)C(C)C(OC2OC(C)CC(NC)C2O)C2(C)CC(C)=C(O2)C1C (centres unmarked) [Compound 756, 4″,13-Di-O-acetyl-de (3′-N-methyl)-8,9-Anhydro-pseudoerythromycin A 6,9-hemiketal]",10 mm,E (Growth of test organism was inhibited 35% or less.),10 mm,E (Growth of test organism was inhibited 35% or less.),14 mm,E (Growth of test organism was inhibited 35% or less.),14 mm,E (Growth of test organism was inhibited 35% or less.),15 mm,D (Growth of test organism was inhibited 35% or more and 55% or less.),–,–,–,–,–,–,–,–,–,–,–
"CCCCCC(=O)OC1C(C)OC(OC2C(C)C(=O)OC(C(C)(O)C(CC)OC(=O)CCCCC)C(C)C3=C(C)CC(C)(O3)C(OC3OC(C)CC(N(C)CC)C3O)C2C)CC1(C)OC (centres unmarked) [Compound 853, 4″,13-Di-O-hexanoyl-de(3′-N-methyl)-N-ethyl-8,9-Anhydro-pseudoerythromycin A 6,9-hemiketal]",16 mm,A (Growth of test organism was inhibited 95% or more.),12 mm,D (Growth of test organism was inhibited 35% or more and 55% or less.),13 mm,B (Growth of test organism was inhibited 75% of more and 95% or less.),15 mm,B (Growth of test organism was inhibited 75% of more and 95% or less.),15 mm,A (Growth of test organism was inhibited 95% or more.),14 mm,A (Growth of test organism was inhibited 95% or more.),15 mm,A (Growth of test organism was inhibited 95% or more.),9 mm,E (Growth of test organism was inhibited 35% or less.),10 mm,B (Growth of test organism was inhibited 75% of more and 95% or less.),14 mm,A (Growth of test organism was inhibited 95% or more.),Inhibition activity (inhibition ring mm) C. albicans ATCC 64550 GYF ([1]; 10 μg/8 mm disk): 11 mm; Transparency of the inhibition ring C. albicans ATCC 64550 GYF ([1]; 10 μg/8 mm disk): D (Growth of test organism was inhibited 35% or more and 55% or less.); Inhibition activity (inhibition ring mm) C. albicans ATCC 64550 GYF ([1]; 100 μg/8 mm disk): 15 mm; Transparency of the inhibition ring C. albicans ATCC 64550 GYF ([1]; 100 μg/8 mm disk): A (Growth of test organism was inhibited 95% or more.); Inhibition activity (inhibition ring mm) A. niger ATCC 6275 GY ([2]; 10 μg/8 mm disk): 10 mm; Transparency of the inhibition ring A. niger ATCC 6275 GY ([2]; 10 μg/8 mm disk): E (Growth of test organism was inhibited 35% or less.); Inhibition activity (inhibition ring mm) A. niger ATCC 6275 GYM ([2]; 10 μg/8 mm disk): 10 mm; Transparency of the inhibition ring A. niger ATCC 6275 GYM ([2]; 10 μg/8 mm disk): E (Growth of test organism was inhibited 35% or less.); Inhibition activity (inhibition ring mm) A. niger ATCC 6275 GY ([2]; 100 μg/8 mm disk): 13 mm; Transparency of the inhibition ring A. niger ATCC 6275 GY ([2]; 100 μg/8 mm disk): D (Growth of test organism was inhibited 35% or more and 55% or less.); Inhibition activity (inhibition ring mm) A. niger ATCC 6275 GYF ([2]; 100 μg/8 mm disk): 14 mm; Transparency of the inhibition ring A. niger ATCC 6275 GYF ([2]; 100 μg/8 mm disk): B (Growth of test organism was inhibited 75% of more and 95% or less.); Inhibition activity (inhibition ring mm) A. niger ATCC 6275 GYM ([2]; 100 μg/8 mm disk): 16 mm; Transparency of the inhibition ring A. niger ATCC 6275 GYM ([2]; 100 μg/8 mm disk): B (Growth of test organism was inhibited 75% of more and 95% or less.); Inhibition activity (inhibition ring mm) C. albicans ATCC 64548 GYF ([3]; 10 μg/8 mm disk): 9 mm; Transparency of the inhibition ring C. albicans ATCC 64548 GYF ([3]; 10 μg/8 mm disk): E (Growth of test organism was inhibited 35% or less.); Inhibition activity (inhibition ring mm) C. albicans ATCC 64548 GYF ([3]; 50 μg/8 mm disk): 14 mm; Transparency of the inhibition ring C. albicans ATCC 64548 GYF ([3]; 50 μg/8 mm disk): B (Growth of test organism was inhibited 75% of more and 95% or less.); Inhibition activity (inhibition ring mm) C. albicans ATCC 64548 GYF ([3]; 100 μg/8 mm disk): 16 mm; Transparency of the inhibition ring C. albicans ATCC 64548 GYF ([3]; 100 μg/8 mm disk): B (Growth of test organism was inhibited 75% of more and 95% or less.)
"CCC(=O)OC1C(C)OC(OC2C(C)C(=O)OC(C(C)(O)C(CC)OC(=O)CC)C(C)C3=C(C)CC(C)(O3)C(OC3OC(C)CC(N(C)C)C3OC(C)=O)C2C)CC1(C)OC (centres unmarked) [Compound 771, 2′-O-acetyl-4″,13-Di-O-propionyl-8,9-Anhydro-pseudoerythromycin A 6,9-hemiketal]",–,–,–,–,15 mm,E (Growth of test organism was inhibited 35% or less.),23 mm,E (Growth of test organism was inhibited 35% or less.),–,–,10 mm,E (Growth of test organism was inhibited 35% or less.),10 mm,A (Growth of test organism was inhibited 95% or more.),14 mm,E (Growth of test organism was inhibited 35% or less.),–,–,12 mm,D (Growth of test organism was inhibited 35% or more and 55% or less.),–
"CCC(OC(=O)c1ccccc1)C(C)(O)C1OC(=O)C(C)C(OC2CC(C)(OC)C(OC(=O)c3ccccc3)C(C)O2)C(C)C(OC2OC(C)CC(N(C)C)C2OC(=O)c2ccccc2)C2(C)CC(C)=C(O2)C1C (centres unmarked) [Compound 770, 2′,4″,13-Tri-O-benzoyl-8,9-Anhydro-pseudoerythromycin A 6,9-hemiketal]",–,–,11 mm,E (Growth of test organism was inhibited 35% or less.),18 mm,E (Growth of test organism was inhibited 35% or less.),12 mm,E (Growth of test organism was inhibited 35% or less.),–,–,13 mm,C (Growth of test organism was inhibited 55% or more and 75% or less.),13 mm,A (Growth of test organism was inhibited 95% or more.),11 mm,E (Growth of test organism was inhibited 35% or less.),11 mm,D (Growth of test organism was inhibited 35% or more and 55% or less.),14 mm,C (Growth of test organism was inhibited 55% or more and 75% or less.),Inhibition activity (inhibition ring mm) C. albicans ATCC 64548 GYF ([3]; 100 μg/8 mm disk): 11 mm; Transparency of the inhibition ring C. albicans ATCC 64548 GYF ([3]; 100 μg/8 mm disk): D (Growth of test organism was inhibited 35% or more and 55% or less.)
